The source of these data is US10780090B2, “Heteroaryl compounds useful as inhibitors of SUMO activating enzyme” (Millennium Pharmaceuticals, Inc., priority 2014, dated 2020).

Where two headings read alike, the source gives them in different places.

This assay has as its target recombinant human SAE enzyme (Homo sapiens (Human), UniProt Q9UBT2). Nature of the assay: SAE HTRF enzyme assay. The format is biochemical. The following applies: for inhibition at 0.111 µM: read-out: Percent Inhibition. On the procedure: Example 215: SAE HTRF enzyme assay
The SAE enzymatic reaction totals 50 μl and contains 50 mM HEPES Hemisodium (pH 7.5), 0.05% BSA, 5 mM MgCl2, 0.5 μM ATP, 250 μM GSH, 0.01 μM Ubc9-GST, 0.125 μM Sumo-Flag and 0.11 nM recombinant human SAE enzyme. The enzymatic reaction mixture, with and without inhibitor, Is incubated at 24° C. for 105 min in a 384-well plate before termination with […] of Stop/Detection buffer (0.1M HEPES Hemisodium pH 7.5, 0.05% Tween20, 20 mM EDTA, 410 mM KF, 0.53 nM Europium-Cryptate labeled monoclonal anti-Flag M2 Antibody (CisBio International) and 8.125 μg/ml PHYCOLINK goat anti-GST allophycocyanin (XL-APC) antibody (Prozyme)). After incubation for 2 hours at 24° C., quantification of FRET is performed on the Pherostar™ (BMG Labtech). Percentage inhibition values at a single concentration or enzyme inhibition (IC50) values are determined from those curves. One skilled in the art will appreciate that the values generated either as percentage inhibition at a single concentration or IC50 values are subject to experimental variation.
On the technique in general: Time-resolved FRET reads energy transfer from a long-lived donor to a nearby acceptor.

[1] abbreviates: SAE inhibition at compound concentration 0.111 μM.
Where [2] appears, read: SAE inhibition, class symbols, legend in nM.

Chain of recombinant human SAE enzyme (Q9UBT2 whole entry): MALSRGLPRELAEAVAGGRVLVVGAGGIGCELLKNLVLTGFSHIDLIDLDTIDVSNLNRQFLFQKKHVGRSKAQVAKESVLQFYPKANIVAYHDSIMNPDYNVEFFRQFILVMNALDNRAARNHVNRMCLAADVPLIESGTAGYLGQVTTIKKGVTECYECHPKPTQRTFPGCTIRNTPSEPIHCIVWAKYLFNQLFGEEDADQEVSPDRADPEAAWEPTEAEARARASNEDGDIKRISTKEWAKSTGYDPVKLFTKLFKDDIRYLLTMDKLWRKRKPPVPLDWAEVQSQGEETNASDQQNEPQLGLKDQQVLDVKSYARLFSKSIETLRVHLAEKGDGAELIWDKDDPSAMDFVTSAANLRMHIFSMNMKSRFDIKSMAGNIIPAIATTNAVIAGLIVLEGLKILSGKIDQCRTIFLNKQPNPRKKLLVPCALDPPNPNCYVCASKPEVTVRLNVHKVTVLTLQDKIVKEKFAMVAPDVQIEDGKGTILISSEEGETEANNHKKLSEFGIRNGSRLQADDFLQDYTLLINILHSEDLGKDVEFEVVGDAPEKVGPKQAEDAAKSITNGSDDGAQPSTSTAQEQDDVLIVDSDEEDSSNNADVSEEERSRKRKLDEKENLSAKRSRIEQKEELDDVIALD
Chain of recombinant human SAE enzyme (Q9UBE0 whole entry partner): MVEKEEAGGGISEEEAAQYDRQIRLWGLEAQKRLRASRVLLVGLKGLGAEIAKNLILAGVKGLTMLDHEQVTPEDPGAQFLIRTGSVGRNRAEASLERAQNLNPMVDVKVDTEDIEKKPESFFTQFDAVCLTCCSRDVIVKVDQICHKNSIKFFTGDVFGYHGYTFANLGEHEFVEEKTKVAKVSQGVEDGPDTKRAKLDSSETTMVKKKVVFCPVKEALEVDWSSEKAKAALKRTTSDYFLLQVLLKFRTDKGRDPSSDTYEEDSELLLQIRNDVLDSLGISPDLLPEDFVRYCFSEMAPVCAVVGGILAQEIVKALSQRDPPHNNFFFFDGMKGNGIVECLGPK

For `NS(=O)(=O)OC[C@H]1C[C@@H](Nc2ncncc2C(=O)c2cc(CN3Cc4ccccc4C3)cs2)C[C@@H]1O` [I-187, {(1R,2S,4R)-4-[(5-{[4-(1,3-dihydro-2H-isoindol-2-ylmethyl)-2-thienyl]carbonyl}pyrimidin-4-yl)amino]-2-hydroxycyclopentyl}methyl sulfamate], the inhibition – broadly, the relative decrease from the control value, in per cent – at 0.111 µM (Concentration 0.111 μM) was determined as 76%. Besides, the IC50 – broadly, the concentration that gives 50% inhibition – (class symbols A/B/C) lay within 10 to 100 nM.
As to `NS(=O)(=O)OCC1CC(Nc2ncncc2C(=O)c2cc(C3(c4cccc(Cl)c4)CCCCO3)cs2)CC1O` (mixture of isomers) [I-154, [(1R,2S,4R)-4-{[5-({4-[(2R)-2-(3-chlorophenyl)tetrahydro-2H-pyran-2-yl]-2-thienyl}carbonyl)pyrimidin-4-yl]amino}-2-hydroxycyclopentyl]methyl sulfamate and [(1R,2S,4R)-4-{[5-({4-[(2S)-2-(3-chlorophenyl)tetrahydro-2H-pyran-2-yl]-2-thienyl}carbonyl)pyrimidin-4-yl]amino}-2-hydroxycyclopentyl]methyl sulfamate], the “Percent Inhibition” value (Concentration 0.111 μM) was 95. Further, where the note is “class symbols A/B/C”, the IC50 was below 10 nM.
Consider `Cc1nc2c(s1)CCO[C@H]2c1cc(C(=O)c2cncnc2N[C@@H]2C[C@H](COS(N)(=O)=O)[C@@H](O)C2)sc1C` (single isomer, unassigned) [I-287b, [(1R,2S,4R)-2-hydroxy-4-{[5-({5-methyl-4-[(4S)-2-methyl-6,7-dihydro-4H-pyrano[3,4-d][1,3]thiazol-4-yl]-2-thienyl}carbonyl)pyrimidin-4-yl]amino}cyclopentyl]methyl sulfamate or [(1R,2S,4R)-2-hydroxy-4-{[5-({5-methyl-4-[(4R)-2-methyl-6,7-dihydro-4H-pyrano[3,4-d][1,3]thiazol-4-yl]-2-thienyl}carbonyl)pyrimidin-4-yl]amino}cyclopentyl]methyl sulfamate], for which, under setting [1], the “Percent Inhibition” value came out at 98%. Under setting [2], the IC50 is below 10 nM.
Turning to `CC(C)c1ccccc1OCc1csc(C(=O)c2cncnc2N[C@@H]2C[C@H](COS(N)(=O)=O)[C@@H](O)C2)c1` [I-191, [(1R,2S,4R)-2-hydroxy-4-{[5-({4-[(2-isopropylphenoxy)methyl]-2-thienyl}carbonyl)pyrimidin-4-yl]amino}cyclopentyl]methyl sulfamate], the inhibition at 0.111 µM (Concentration 0.111 μM) is 72%. Also, where the note is “class symbols A/B/C”, the IC50 lay in the range of 10 to 100 nM.
Regarding `NS(=O)(=O)OC[C@H]1C[C@@H](Nc2ncncc2C(=O)c2cc([C@@H]3CCc4ccc(Cl)cc43)cs2)C[C@@H]1O` (mixture of isomers) [I-349, [(1R,2S,4R)-4-{[5-({4-[(1R)-6-chloro-2,3-dihydro-1H-inden-1-yl]-2-thienyl}carbonyl)pyrimidin-4-yl]amino}-2-hydroxycyclopentyl]methyl sulfamate and [(1R,2S,4R)-4-{[5-({4-[(1S)-6-chloro-2,3-dihydro-1H-inden-1-yl]-2-thienyl}carbonyl)pyrimidin-4-yl]amino}-2-hydroxycyclopentyl]methyl sulfamate], the “Percent Inhibition” value under setting [1] stood at 42%. Besides, under setting [2], the IC50 lay within 100 to 1000 nM.
For `Cc1sc(C(=O)c2cncnc2N[C@@H]2C[C@H](COS(N)(=O)=O)[C@@H](OC(=O)CN)C2)cc1[C@@H]1OCCc2ccc(Cl)cc21` [I-330, (1S,2R,4R)-4-{[5-({4-[(1R)-7-chloro-3,4-dihydro-1H-isochromen-1-yl]-5-methyl-2-thienyl}carbonyl)pyrimidin-4-yl]amino}-2-[(sulfamoyloxy)methyl]cyclopentyl aminoacetate], the inhibition at 0.111 µM under setting [1] was 34%. In addition, the IC50 under setting [2] was 100 to 1000 nM.
